Reference: ChEMBL document CHEMBL1201862, “PubChem BioAssay data set” (2004)
Activity calls are given as the source filed them.

Assays:
[1] = target: Peroxisome proliferator-activated receptor gamma/Nuclear receptor coactivator 2 (Homo sapiens, UniProt P37231); type: functional;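 further: agonist potency for raising coactivator recruitment to the receptor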
[2] = target: Peroxisome proliferator-activated receptor gamma/Nuclear receptor coactivator 1 (Homo sapiens, UniProt P37231); type: functional;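 further: agonist potency as compounds enhance coactivator SRC-1 recruitment to PPARgamma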
Chain of Peroxisome proliferator-activated receptor gamma/Nuclear receptor coactivator 1 (P37231 whole entry): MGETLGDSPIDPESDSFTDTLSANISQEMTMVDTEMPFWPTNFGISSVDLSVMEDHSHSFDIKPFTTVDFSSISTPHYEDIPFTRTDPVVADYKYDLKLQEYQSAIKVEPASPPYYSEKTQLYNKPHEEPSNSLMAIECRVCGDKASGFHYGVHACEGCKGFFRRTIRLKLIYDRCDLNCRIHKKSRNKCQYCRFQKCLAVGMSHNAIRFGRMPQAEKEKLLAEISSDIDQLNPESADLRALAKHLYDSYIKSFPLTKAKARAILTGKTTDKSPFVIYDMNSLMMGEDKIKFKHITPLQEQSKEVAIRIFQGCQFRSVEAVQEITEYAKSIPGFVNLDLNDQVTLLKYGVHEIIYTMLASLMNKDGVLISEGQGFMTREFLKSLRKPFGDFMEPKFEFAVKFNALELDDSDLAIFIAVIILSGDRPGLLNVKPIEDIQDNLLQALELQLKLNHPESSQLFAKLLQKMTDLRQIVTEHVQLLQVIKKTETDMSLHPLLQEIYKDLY
Chain of Peroxisome proliferator-activated receptor gamma/Nuclear receptor coactivator 1 (Q15788 whole entry, further chain): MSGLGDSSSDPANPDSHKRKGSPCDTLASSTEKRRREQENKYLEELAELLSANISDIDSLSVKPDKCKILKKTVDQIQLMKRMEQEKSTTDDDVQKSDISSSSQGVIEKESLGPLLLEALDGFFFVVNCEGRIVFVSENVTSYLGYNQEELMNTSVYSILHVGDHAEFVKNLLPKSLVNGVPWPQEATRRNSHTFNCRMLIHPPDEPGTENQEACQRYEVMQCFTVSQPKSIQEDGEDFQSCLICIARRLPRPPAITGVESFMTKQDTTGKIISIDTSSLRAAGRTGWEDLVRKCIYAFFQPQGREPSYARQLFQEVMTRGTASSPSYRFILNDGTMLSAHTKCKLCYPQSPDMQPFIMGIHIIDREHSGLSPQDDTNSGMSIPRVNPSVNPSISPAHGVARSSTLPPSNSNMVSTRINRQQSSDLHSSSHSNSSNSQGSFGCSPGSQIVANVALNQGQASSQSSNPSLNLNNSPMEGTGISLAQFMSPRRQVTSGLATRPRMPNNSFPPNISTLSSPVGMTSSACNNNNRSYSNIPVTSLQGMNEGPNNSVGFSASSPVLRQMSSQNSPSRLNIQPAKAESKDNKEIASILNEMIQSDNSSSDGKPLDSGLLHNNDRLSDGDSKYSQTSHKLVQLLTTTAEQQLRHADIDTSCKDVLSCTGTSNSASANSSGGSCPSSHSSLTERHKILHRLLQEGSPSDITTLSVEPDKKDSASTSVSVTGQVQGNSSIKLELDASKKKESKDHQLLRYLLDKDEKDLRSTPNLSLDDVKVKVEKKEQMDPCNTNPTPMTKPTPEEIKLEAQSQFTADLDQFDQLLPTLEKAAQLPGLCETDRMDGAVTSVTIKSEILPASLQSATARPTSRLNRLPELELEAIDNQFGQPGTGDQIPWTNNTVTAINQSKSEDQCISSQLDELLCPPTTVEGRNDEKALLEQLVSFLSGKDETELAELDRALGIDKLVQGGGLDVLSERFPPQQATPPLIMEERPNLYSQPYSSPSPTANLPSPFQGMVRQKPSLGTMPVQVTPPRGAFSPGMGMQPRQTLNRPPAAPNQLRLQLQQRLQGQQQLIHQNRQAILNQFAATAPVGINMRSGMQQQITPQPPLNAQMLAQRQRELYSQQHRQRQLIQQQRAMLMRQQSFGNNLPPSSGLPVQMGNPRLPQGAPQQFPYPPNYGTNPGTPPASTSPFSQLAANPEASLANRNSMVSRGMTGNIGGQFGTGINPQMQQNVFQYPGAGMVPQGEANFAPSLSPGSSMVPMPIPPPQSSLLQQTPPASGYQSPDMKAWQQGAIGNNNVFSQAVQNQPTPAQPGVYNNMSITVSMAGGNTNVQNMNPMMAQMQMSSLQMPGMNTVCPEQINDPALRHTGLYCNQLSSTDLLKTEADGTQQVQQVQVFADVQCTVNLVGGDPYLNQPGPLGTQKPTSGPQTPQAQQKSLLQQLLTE

[3] = target: Peroxisome proliferator-activated receptor gamma/Nuclear receptor coactivator 3 (Homo sapiens, UniProt P37231); type: functional;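 further: agonist potency for raising coactivator recruitment to the receptor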
Chain of Peroxisome proliferator-activated receptor gamma/Nuclear receptor coactivator 3 (P37231 whole entry): as the sequence (P37231 whole entry) above
Chain of Peroxisome proliferator-activated receptor gamma/Nuclear receptor coactivator 3 (Q9Y6Q9 whole entry, further chain): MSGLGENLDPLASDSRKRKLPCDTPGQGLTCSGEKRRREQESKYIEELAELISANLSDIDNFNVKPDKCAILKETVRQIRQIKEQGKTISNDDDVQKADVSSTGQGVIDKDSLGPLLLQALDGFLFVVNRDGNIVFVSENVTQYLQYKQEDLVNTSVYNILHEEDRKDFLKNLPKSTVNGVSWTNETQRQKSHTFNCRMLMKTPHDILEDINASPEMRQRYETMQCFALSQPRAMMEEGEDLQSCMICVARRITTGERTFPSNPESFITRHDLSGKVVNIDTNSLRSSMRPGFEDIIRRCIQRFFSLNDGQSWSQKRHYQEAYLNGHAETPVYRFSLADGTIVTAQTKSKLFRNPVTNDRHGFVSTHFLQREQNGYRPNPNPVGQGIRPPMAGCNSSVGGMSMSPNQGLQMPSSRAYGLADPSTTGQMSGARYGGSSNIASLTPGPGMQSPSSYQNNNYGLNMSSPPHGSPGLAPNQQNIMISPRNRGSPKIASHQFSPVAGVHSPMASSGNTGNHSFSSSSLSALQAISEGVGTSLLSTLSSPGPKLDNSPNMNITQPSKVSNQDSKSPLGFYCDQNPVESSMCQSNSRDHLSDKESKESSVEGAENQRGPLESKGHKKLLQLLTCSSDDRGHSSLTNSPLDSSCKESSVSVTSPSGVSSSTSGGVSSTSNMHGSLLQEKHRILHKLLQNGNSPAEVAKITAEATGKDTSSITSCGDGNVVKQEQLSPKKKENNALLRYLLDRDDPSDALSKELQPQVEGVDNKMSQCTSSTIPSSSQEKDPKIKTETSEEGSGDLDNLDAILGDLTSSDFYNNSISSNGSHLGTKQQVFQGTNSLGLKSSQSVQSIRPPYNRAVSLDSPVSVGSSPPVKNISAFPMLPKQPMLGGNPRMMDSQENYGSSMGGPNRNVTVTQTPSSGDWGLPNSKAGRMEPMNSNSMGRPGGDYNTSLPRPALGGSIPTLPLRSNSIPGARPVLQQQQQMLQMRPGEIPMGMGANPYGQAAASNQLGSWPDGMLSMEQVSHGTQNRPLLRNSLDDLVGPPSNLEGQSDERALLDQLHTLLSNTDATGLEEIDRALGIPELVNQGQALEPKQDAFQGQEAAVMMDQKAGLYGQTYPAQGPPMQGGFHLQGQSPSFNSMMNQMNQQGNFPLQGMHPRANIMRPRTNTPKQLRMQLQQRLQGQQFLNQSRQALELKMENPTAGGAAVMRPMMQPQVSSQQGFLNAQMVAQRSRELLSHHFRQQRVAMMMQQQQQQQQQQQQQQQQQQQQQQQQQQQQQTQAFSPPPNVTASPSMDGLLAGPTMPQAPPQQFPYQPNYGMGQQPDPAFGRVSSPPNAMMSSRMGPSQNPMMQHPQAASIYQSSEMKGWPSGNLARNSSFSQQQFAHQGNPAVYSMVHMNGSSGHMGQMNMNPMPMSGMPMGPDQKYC

[4] = target: T1, NADPH oxidase 1 (Homo sapiens, UniProt Q9Y5S8); type: functional, cell-based;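 further: Cell-based assay with luminescence read-out, IC50 derived from inhibitor dose-response curves; intracellular ROS from endogenous NOX1 in intact HT29 colon cancer cells; potency of inhibitors that lower the ROS luminescence signal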
T1 sequence (Q9Y5S8 whole entry): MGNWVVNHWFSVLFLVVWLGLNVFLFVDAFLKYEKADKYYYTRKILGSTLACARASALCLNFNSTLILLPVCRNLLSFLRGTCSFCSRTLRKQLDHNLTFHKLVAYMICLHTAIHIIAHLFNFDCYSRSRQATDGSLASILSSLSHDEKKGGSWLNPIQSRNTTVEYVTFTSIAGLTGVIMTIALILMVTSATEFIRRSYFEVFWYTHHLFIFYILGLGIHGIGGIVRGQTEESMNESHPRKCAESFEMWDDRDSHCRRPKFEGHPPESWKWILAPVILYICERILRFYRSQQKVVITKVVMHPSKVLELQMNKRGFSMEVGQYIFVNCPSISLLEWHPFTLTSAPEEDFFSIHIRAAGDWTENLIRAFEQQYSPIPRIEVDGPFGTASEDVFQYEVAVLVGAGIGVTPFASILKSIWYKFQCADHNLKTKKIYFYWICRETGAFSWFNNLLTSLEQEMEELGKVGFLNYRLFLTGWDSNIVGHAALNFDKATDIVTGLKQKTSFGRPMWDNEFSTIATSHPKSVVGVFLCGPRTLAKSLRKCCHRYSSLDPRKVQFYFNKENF

[5] = target: T2, Leucine aminopeptidase (Plasmodium falciparum 3D7, UniProt Q8IL11); assay: P. falciparum M17LAP inhibitors, primary screen, biochemical, fluorogenic H-Leu-NHMec substrate, 1536-well (AID 1619); type: functional
T2 sequence (Q8IL11 whole entry): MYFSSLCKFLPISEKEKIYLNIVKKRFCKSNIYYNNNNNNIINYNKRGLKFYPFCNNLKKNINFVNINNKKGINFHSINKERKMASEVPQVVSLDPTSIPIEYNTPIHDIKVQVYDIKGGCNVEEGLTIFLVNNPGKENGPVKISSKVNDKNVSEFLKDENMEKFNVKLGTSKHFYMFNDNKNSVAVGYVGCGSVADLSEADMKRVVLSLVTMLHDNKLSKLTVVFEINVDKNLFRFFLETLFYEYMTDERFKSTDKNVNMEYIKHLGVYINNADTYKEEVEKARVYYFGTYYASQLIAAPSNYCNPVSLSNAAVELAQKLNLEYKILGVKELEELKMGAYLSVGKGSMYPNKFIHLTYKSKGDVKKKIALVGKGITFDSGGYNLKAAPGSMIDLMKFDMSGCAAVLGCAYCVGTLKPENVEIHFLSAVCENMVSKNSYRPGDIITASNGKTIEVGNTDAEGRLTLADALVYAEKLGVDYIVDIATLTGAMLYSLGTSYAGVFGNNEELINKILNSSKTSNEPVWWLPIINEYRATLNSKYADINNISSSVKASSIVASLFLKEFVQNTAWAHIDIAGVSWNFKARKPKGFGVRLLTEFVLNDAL

[6] = target: Kallikrein-7 (Homo sapiens, UniProt P49862); assay: Fluorescence Intensity-based biochemical primary high throughput dose response assay to identify activators of kallikrein-7 (K7) zymogen.
Chain of Kallikrein-7 (P49862 whole entry): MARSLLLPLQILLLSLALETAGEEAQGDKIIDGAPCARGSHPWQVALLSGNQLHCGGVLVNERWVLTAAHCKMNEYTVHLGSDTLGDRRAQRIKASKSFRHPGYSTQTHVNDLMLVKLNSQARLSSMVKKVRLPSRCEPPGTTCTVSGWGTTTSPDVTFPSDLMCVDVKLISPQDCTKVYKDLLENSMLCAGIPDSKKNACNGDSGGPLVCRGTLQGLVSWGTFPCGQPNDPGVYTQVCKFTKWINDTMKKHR

[7] = target: T3, Replicative DNA helicase DnaB (Mycobacterium tuberculosis, UniProt P9WMR3); assay: DnaB intein splicing inhibitors, dose response, biochemical, cell-free fluorescence (AID 449749); type: functional
T3 sequence (P9WMR3 whole entry): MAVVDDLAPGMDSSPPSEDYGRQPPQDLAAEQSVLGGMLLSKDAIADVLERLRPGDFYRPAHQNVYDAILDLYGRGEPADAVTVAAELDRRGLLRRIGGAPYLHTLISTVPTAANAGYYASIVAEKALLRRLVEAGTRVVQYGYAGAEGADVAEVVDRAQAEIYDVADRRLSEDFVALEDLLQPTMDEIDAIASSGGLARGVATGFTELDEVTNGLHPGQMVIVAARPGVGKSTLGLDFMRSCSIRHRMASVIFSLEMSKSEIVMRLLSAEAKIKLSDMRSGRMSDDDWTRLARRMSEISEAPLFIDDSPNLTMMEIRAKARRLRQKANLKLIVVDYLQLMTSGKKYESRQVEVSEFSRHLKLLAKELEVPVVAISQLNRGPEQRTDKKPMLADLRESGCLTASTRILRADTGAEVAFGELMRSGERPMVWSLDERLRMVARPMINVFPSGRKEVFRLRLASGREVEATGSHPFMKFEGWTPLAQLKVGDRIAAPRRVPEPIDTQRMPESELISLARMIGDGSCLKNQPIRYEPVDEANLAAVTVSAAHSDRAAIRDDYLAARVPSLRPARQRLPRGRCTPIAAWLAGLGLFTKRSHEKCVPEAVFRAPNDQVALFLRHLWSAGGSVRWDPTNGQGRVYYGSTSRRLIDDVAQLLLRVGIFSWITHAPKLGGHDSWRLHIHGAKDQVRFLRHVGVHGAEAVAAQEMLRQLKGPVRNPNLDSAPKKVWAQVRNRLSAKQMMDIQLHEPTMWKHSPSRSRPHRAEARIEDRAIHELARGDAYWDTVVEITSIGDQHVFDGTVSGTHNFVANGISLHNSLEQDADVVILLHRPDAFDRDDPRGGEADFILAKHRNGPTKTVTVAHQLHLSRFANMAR

[8] = target: Cytochrome P450 2C19 (Homo sapiens, UniProt P33261); assay: Cytochrome panel assay with activity outcomes. Panel member name: p450-cyp2c19 Compounds with AC50 equal or less than 10 uM are considered active; type: functional; conditions: read-out: AC50
Chain of Cytochrome P450 2C19 (P33261 whole entry): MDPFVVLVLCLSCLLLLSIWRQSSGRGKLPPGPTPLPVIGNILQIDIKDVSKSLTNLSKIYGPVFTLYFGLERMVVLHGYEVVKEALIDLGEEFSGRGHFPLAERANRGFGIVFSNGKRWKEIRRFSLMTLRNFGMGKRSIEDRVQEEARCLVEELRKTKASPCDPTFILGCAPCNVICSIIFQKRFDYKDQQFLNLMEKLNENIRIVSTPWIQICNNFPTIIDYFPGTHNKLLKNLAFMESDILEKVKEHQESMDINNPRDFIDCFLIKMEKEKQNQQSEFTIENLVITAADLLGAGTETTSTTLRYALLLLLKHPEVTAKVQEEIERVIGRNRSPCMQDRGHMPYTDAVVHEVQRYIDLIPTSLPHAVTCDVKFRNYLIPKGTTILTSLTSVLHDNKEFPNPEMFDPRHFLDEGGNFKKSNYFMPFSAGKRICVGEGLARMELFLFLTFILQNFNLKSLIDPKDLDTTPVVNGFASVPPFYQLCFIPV

[9] = target: T4, Protein RecA (Mycobacterium tuberculosis, UniProt P9WHJ3); assay: Fluorescence Cell-Free Homogeneous Dose Retest to Identify Inhibitors of RecA-Intein Splicing Activity. [Related pubchem assays (depositor defined):AID2097, AID2223, AID489010, AID492950]; type: functional
T4 sequence (P9WHJ3 whole entry): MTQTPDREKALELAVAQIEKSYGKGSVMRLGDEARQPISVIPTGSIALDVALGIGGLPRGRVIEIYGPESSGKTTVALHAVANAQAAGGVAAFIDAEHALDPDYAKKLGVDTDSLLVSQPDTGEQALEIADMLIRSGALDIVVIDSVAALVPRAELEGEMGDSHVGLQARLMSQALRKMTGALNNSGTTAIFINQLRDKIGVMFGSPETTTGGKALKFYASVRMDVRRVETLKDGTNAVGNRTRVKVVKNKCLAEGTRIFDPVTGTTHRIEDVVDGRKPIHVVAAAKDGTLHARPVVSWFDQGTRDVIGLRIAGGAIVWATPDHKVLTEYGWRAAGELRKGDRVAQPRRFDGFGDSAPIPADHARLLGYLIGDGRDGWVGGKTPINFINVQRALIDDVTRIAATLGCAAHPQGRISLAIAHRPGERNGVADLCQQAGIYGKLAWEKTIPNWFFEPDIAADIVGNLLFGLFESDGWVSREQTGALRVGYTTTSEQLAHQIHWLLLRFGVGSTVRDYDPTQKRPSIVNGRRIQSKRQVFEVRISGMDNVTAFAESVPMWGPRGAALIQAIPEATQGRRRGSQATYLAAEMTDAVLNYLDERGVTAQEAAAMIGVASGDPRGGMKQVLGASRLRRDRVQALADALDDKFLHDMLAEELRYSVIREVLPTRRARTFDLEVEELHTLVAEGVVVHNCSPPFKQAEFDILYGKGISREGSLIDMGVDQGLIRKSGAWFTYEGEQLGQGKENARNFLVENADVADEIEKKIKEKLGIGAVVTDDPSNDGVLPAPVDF

[10] = test system: H4; assay: Luminescence Cell-Based Dose Response HTS to Identify Activators of 5'UTR Stem-Loop Driven Prion Protein mRNA Translation in H4 Neuroglioblastoma Cells. [Related pubchem assays: 1829 (Project Summary), 1814 (Primary HTS)]; type: functional; conditions: Homo sapiens
[11] = Luminescence Cell-Based Dose Response to Identify Activators of 5'UTR Stem-Loop Driven Prion Protein mRNA Translation in H4-C Neuroglioblastoma Cells. [Related pubchem assays: 1829 (Project Summary), 1814 (Primary HTS)]; type: functional
[12] = Luminescence Cell-Based Dose Confirmation to Identify Activators of 5'UTR Stem-Loop Driven Alpha-Synuclein mRNA Translation in H4 Neuroglioblastoma Cells. [Related pubchem assays: 1829 (Project Summary), 1814 (Primary HTS)]; type: functional
[13] = Luminescence Cell-Based Dose Confirmation HTS to Identify Activators of 5'UTR Stem-Loop Driven Alpha-Synuclein mRNA Translation in H4 Neuroglioblastoma Cells. [Related pubchem assays: 1829 (Project Summary), 1814 (Primary HTS)]; type: functional
[14] = Luminescence Cell-Based Dose Response to Identify Activators of Luciferase Translation or Activity in H4-C Neuroglioblastoma Cells. [Related pubchem assays: 1829 (Project Summary), 1814 (Primary HTS)]; type: functional
[15] = Luminescence Cell-Based Dose Response HTS to Identify Activators of Luciferase Translation or Activity in H4 […] Cells. [Related pubchem assays: 1829 (Project Summary), 1814 (Primary HTS)]; type: functional
[16] = HIV-1 Vif–A3G interaction blockers – biochemical, TR-FRET, GST-Vif 1-94, biotin-A3G peptide, dose response retest, primary screen (AID 1117319); type: functional;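 further: TR-FRET signal of purified GST-Vif binding a biotinylated A3G peptide; inhibitors lower the FRET signal by blocking Vif and A3G binding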
[17] = viability inhibitors of stage V gametocytes – luminescence, dose response (AID 1117278); type: functional, cell-based;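 further: gametocytes exposed to compound for 24 hours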
[18] = Luminescence Cell-Based Dose Response HTS to Identify Inhibitors of 5'UTR Stem-Loop Driven Prion Protein mRNA Translation in H4 Neuroglioblastoma Cells. [Related pubchem assays: 1827 (Project Summary), 1813 (Primary HTS)]; type: functional
[19] = viability loss in human Jurkat cells – cell-based, luminescence, cytotoxicity control for P. falciparum gametocyte viability project, dose response (AID 1117277); type: functional;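 further: potency reflects loss of cellular ATP meaning fewer viable cells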
[20] = luciferase reporter signal suppression in cells – H4 neuroglioma cells, luminescence, dose response (AID 1990); type: functional, cell-based
[21] = alpha-synuclein stem-loop luciferase translation blockers – H4 neuroglioma cells, luminescence, confirmation (AID 1988); type: functional, cell-based
[22] = viability of uninfected HEp-2 cells – cell-based, HTS, cytotoxicity control for RSV inhibitor project, dose response (AID 2410); type: functional; conditions: human respiratory syncytial virus
[23] = growth inhibition of yeast DHODH-expressing 3D7 parasites – SYBR Green, dry powder samples, dose response (AID 1159570); type: functional, cell-based;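 further: parasite growth measured after 72 hours of compound exposure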
[24] = growth inhibition of PfATP4-mutant resistant parasites – NITD609-resistant line, SYBR Green, dry powder, dose response (AID 1159571); type: functional, cell-based;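 further: parasites synchronized at ring stage by sorbitol before testing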
[25] = Dd2 malaria parasite growth inhibition potency – SYBR Green, dry powder samples, dose response (AID 1159566); type: functional, cell-based;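 further: potency for growth inhibition with lower SYBR green DNA signal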
[26] = P. falciparum Dd2 growth inhibitors, dose response, SYBR Green, cherry-picked samples (AID 1159567); type: functional, cell-based

SMILES: CCOC(=O)c1c(NC(=O)C(C)Sc2cn(C)c3ccccc23)sc2c1CCC2 (stereo unspecified)
- EC50 [1]: 29.5 µM (not active)
- EC50 [2]: 29.2 µM (not active)
- EC50 [3]: 32.3 µM (not active)

SMILES: O=C(Oc1cccc(-n2cnnn2)c1)c1sc2ccccc2c1Cl
- IC50 [4]: > 17 µM (not active)

SMILES: N#C/C(=C/c1cn(CC(=O)O)c2ccccc12)c1ccc(F)cc1
- IC50 [5]: 21.2 µM (active)

SMILES: Cc1cc(C)cc(Oc2coc3cc(OC(=O)c4cccs4)ccc3c2=O)c1
- EC50 [6]: 66.8 µM (inactive)
- AC50 [7]: 21.2 µM (active)
- AC50 [8]: 2.82 µM (inconclusive)
- EC50 [9]: 18.8 µM (active)

SMILES: COc1ccc(-c2csc(N3CCSCC3)n2)cc1
- EC50 [10]: 0.112 µM (active)
- EC50 [11]: 0.887 µM (active)
- EC50 [12]: 0.579 µM (active)
- EC50 [13]: 1.64 µM (active)
- EC50 [14]: 0.375 µM (active)
- EC50 [15]: 3.17 µM (active)

SMILES: NNC(=O)c1cnn(-c2ccccc2)c1-n1cccc1
- EC50 [1]: > 79.4 µM (not active)
- EC50 [2]: > 79.4 µM (not active)
- EC50 [3]: > 79.4 µM (not active)

SMILES: COc1ccc(OC(=O)c2sc3ccccc3c2Cl)cc1
- IC50 [4]: > 17 µM (not active)

SMILES: COc1ccccc1C1C=C(c2ccc(C)cc2)Nc2nnnn21 (stereo unspecified)
- EC50 [6]: 23.5 µM (inactive)
- IC50 [16]: > 100 µM (active)

SMILES: COc1cccc(N2CCN(S(=O)(=O)c3ccc4[nH]c(-c5ccccc5)nc4c3)CC2)c1
- IC50 [17]: > 109 µM (inactive)
- EC50 [18]: > 120 µM (not active)
- IC50 [19]: > 83.3 µM (inactive)
- EC50 [20]: 29.8 µM (active)
- EC50 [21]: > 120 µM (not active)

SMILES: O=C(Nc1nc2ccc([N+](=O)[O-])cc2s1)c1ccco1
- IC50 [17]: > 109 µM (inactive)
- IC50 [19]: > 83.2 µM (inactive)

SMILES: CCSc1n[nH]c2nc3nc4c(C)cccc4c-3nn12
- IC50 [17]: > 109 µM (inactive)
- IC50 [19]: > 83.3 µM (inactive)

SMILES: Cc1cc(/C=C2/C(=O)N(C)C(=S)N2C)c(C)n1C1CC1
- EC50 [1]: > 79.4 µM (not active)
- EC50 [10]: > 120 µM (not active)
- EC50 [2]: > 79.4 µM (not active)
- EC50 [11]: 0.297 µM (active)
- EC50 [12]: 0.343 µM (active)
- CC50 [22]: 40.7 µM (active)
- EC50 [3]: > 79.4 µM (not active)
- EC50 [14]: 0.337 µM (active)
- EC50 [15]: < 0.1 µM (inconclusive)

SMILES: CCOC(=O)N1CCN(C(=O)C2CCCN(S(=O)(=O)c3ccc(C)cc3)C2)CC1 (stereo unspecified)
- IC50 [16]: > 100 µM (active)

SMILES: O=C(O)c1ccc(/C=N/Nc2ccc(F)cc2F)cc1
- IC50 [5]: 99.4 µM (active)

SMILES: C[C@@H]1CN([C@H](C)CO)C(=O)c2cc(C#CCc3ccccc3)cnc2O[C@H]1CN(C)C(=O)C1CCC1
- AC50 [23]: 2.1 µM (active)
- AC50 [24]: 1.54 µM (active)
- AC50 [25]: 1.88 µM (active)
- AC50 [26]: 2.18 µM (active)

SMILES: Cc1ccccc1-c1nc(-c2ccccc2)c(-c2ccccc2)[nH]1
- IC50 [4]: > 17 µM (not active)
